A word on the EC50: it is the concentration at which the effect is half-maximal. Low readings indicate greater potency, high ones weaker potency. One may read the Emax as the maximal effect, on the per cent scale that the assay sets.

We go through nine compounds from patent US9642831B2, “Substituted chromanes and method of use” (AbbVie S.á.r.l., priority 2014, dated 2017).

The experiment deals with F508delCFTR (Homo sapiens, UniProt P13569, DEL508-508). Nature of the experiment: Cell Surface Expression-Horse Radish Peroxidase (CSE-HRP) assay. The format is cell-based. Set-up: expressed in transfected cells; host or cells: CFBE41o- human lung derived epithelial cell line, doxycycline-inducible. The conditions noted are these: CFBE4lo-F508delCFTR-HRP cells; for EC50: 18-24 hours at 33° C., 8-point curve, highest concentration 20 μM, luminescence readout; for Emax: maximum % activity at any tested concentration, normalized to on-plate positive control (3 μM Example 1). From the text: Cell Surface Expression-Horse Radish Peroxidase (CSE-HRP) Assay:
A cellular assay for measuring the F508delCFTR cell surface expression after correction with test compounds was developed in human lung derived epithelial cell line (CFBE4lo-) (Veit G et al, (2012) Mol Biol Cell. 23(21): 4188-4202). This was achieved by expressing the F508delCFTR mutation along with a horseradish peroxidase (HRP) in the fourth exofacial loop and then measuring the HRP activity using luminescence readout from these cells, CFBE4lo-F508delCFTR-HRP, that were incubated overnight with the test corrector compounds. Briefly, for this primary assay, the CFBE4lo-F508delCFTR-HRP cells were plated in 384-well plates (Greiner Bio-one; Cat 781080) at 4,000 cells/well along with 0.5 μg/mL doxycycline to induce the F508delCFTR-HRP expression and further incubated at 37° C., 5% CO2 for 72 hours. The test compounds were then added at the required concentrations and further incubated for 18-24 hours at 33° C. The highest concentration tested was 20 μM with an 8-point concentration response curve using a 3-fold dilution. Three replicate plates were run to determine one EC50. All plates contained negative controls (dimethyl sulfoxide, DMSO) and positive controls (3 μM of 3-[(2R,4R)-4-({[1-(2,2-difluoro-1,3-benzodioxol-5-yl)cyclopropyl]carbonyl}amino)-7-methoxy-3,4-dihydro-2H-chromen-2-yl]benzoic acid) as well as on-plate concentration response of the positive control. Post incubation, the plates were washed 5× times with Dulbecco's phosphate buffered saline (DPBS), followed by the addition of the HRP substrate, luminol (50 μL), and measuring the HRP activity using luminescence readout on EnVision® Multilabel Plate Reader (Perkin Elmer; product number 2104-0010). The raw counts from the experiment are analyzed using Accelrys® Assay Explorer v3.3.
Z′ greater than 0.5 was used as passing quality control criteria for the plates.
The Z′ is defined as: 1−[3*SDPositive Control+3*SDNegative Control/Absolute(MeanPositive Control−MeanNegative Control)] wherein “SD” is standard deviation.
The % activity measured at each of the 8 test concentrations of the test compound was normalized to the on-plate positive control using the following formula: % activity=[(test compound response−DMSO response)/(positive control response−DMSO response)]*100
The maximum % activity achieved for the test compound at any tested concentration is presented in Table 1 along with the EC50 calculated using the following general sigmoidal curve with variable Hill slope equation (described as Model 42 in the Accelrys® Assay Explorer v3.3 software): y=(a−d)/(1+(x/c)^b)+d
General sigmoidal curve with concentration, response, top, bottom, EC50 and Hill slope.
This model describes a sigmoidal curve with an adjustable baseline, a. The equation can be used to fit curves where response is either increasing or decreasing with respect to the independent variable, “x”.
“x” is a concentration of drug under test.
“a” is the maximum response, and “d” is the minimum response
“c” is the inflection point (EC50) for the curve. That is, “y” is halfway between the lower and upper asymptotes when x=c.
“b” is the slope-factor or Hill coefficient. The sign of b is positive when the response increases with increasing dose and is negative when the response decreases with increasing dose (inhibition).

F508delCFTR, sequence (P13569 with tags, fused parts or gaps DEL508-508): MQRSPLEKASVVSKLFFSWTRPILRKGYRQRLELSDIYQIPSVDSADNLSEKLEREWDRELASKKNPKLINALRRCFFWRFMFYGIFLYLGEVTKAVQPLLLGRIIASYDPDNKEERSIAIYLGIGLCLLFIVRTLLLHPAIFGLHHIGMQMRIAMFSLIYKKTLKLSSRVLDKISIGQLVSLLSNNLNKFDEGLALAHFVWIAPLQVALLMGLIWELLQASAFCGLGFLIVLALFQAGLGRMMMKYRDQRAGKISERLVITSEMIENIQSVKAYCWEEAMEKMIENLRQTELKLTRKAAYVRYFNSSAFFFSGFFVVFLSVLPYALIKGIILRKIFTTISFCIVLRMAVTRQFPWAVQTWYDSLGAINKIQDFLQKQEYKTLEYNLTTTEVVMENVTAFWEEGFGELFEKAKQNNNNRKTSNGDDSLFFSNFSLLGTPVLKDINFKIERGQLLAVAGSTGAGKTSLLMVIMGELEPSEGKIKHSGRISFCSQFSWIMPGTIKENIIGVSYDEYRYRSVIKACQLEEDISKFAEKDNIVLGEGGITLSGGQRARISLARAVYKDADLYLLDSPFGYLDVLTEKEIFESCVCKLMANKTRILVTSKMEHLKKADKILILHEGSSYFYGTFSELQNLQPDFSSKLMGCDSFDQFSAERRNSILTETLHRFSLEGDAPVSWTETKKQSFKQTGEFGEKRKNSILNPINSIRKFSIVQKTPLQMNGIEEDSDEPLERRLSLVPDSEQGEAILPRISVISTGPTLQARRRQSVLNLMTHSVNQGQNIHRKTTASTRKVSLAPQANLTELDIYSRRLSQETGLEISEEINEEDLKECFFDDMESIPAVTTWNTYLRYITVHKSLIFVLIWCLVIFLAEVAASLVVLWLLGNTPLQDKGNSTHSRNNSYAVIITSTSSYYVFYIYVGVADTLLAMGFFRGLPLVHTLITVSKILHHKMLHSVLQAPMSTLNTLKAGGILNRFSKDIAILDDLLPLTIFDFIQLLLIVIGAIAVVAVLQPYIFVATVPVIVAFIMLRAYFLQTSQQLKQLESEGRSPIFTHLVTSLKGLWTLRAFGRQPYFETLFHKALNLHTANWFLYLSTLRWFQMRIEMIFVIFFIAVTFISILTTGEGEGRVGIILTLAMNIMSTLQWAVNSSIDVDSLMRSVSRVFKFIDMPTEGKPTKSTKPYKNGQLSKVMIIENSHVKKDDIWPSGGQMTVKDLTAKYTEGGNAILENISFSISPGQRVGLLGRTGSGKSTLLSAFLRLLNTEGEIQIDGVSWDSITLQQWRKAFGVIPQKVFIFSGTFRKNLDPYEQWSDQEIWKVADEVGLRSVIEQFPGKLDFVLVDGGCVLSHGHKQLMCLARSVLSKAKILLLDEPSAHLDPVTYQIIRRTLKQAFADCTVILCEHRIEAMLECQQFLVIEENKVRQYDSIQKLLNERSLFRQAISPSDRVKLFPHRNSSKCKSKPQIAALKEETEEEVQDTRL

`COC(=O)c1cccc([C@H]2C[C@H](NC(=O)C3(c4ccc5c(c4)OC(F)(F)O5)CC3)c3ccc(F)nc3O2)c1` (racemic) [Example 118, methyl rac-3-[(2R,4S)-4-({[1-(2,2-difluoro-1,3-benzodioxol-5-yl)cyclopropyl]carbonyl}amino)-7-fluoro-3,4-dihydro-2H-pyrano[2,3-b]pyridin-2-yl]benzoate] showed an EC50 of 8150 nM and an Emax of 25%.
The corresponding values for `CCOC(=O)[C@H]1C[C@H](NC(=O)C2(c3ccc4c(c3)OC(F)(F)O4)CC2)c2ccc(OC)cc2O1` (racemic) [Example 130, Ethyl rac-(2R,4S)-4-({[1-(2,2-difluoro-1,3-benzodioxol-5-yl)cyclopropyl]carbonyl}amino)-7-methoxy-3,4-dihydro-2H-chromene-2-carboxylate] are 2560 nM and 79%.
On the same counts, the results for `COC(=O)[C@H]1C[C@H](NC(=O)C2(c3ccc4c(c3)OC(F)(F)O4)CC2)c2ccc(OC)cc2O1` (racemic) [Example 131, methyl rac-(2R,4S)-4-({[1-(2,2-difluoro-1,3-benzodioxol-5-yl)cyclopropyl]carbonyl}amino)-7-methoxy-3,4-dihydro-2H-chromene-2-carboxylate] are 3600 nM and 70%.
In turn, `COc1ccc2c(c1)O[C@@H](C(=O)O)C[C@@H]2NC(=O)C1(c2ccc3c(c2)OC(F)(F)O3)CC1` (racemic) [Example 134, rac-(2R,4S)-4-({[1-(2,2-difluoro-1,3-benzodioxol-5-yl)cyclopropyl]carbonyl}amino)-7-methoxy-3,4-dihydro-2H-chromene-2-carboxylic acid] displayed a concentration for a half-maximal effect (EC50) of over 20000 nM and an Emax of 4%.
Compound `COC(=O)C12CC([C@H]3C[C@@H](NC(=O)C4(c5ccc6c(c5)OC(F)(F)O6)CC4)c4ccc(OC)cc4O3)(C1)C2` (racemic) [Example 147, methyl rac-3-[(2R,4R)-4-({[1-(2,2-difluoro-1,3-benzodioxol-5-yl)cyclopropyl]carbonyl}amino)-7-methoxy-3,4-dihydro-2H-chromen-2-yl]bicyclo[1.1.1]pentane-1-carboxylate] yielded an EC50 of 2040 nM and an Emax of 78%.
`CCOC(=O)c1ccc([C@H]2C[C@H](NC(=O)C3(c4ccc5c(c4)OC(F)(F)O5)CC3)c3ccccc3O2)nc1` (racemic) [Example 149, ethyl rac-6-[(2R,4S)-4-({[1-(2,2-difluoro-1,3-benzodioxol-5-yl)cyclopropyl]carbonyl}amino)-3,4-dihydro-2H-chromen-2-yl]pyridine-3-carboxylate] had an EC50 of 1530 nM and an Emax of 85%.
`CCOC(=O)c1ccc([C@H]2C[C@@H](NC(=O)C3(c4ccc5c(c4)OC(F)(F)O5)CC3)c3ccccc3O2)nc1` (racemic) [Example 150, ethyl rac-6-[(2R,4R)-4-({[1-(2,2-difluoro-1,3-benzodioxol-5-yl)cyclopropyl]carbonyl}amino)-3,4-dihydro-2H-chromen-2-yl]pyridine-3-carboxylate] came in with an EC50 of 420 nM and an Emax of 106%.
The corresponding values for `O=C(O)c1ccc([C@H]2C[C@H](NC(=O)C3(c4ccc5c(c4)OC(F)(F)O5)CC3)c3ccccc3O2)nc1` (racemic) [Example 153, rac-6-[(2R,4S)-4-({[1-(2,2-difluoro-1,3-benzodioxol-5-yl)cyclopropyl]carbonyl}amino)-3,4-dihydro-2H-chromen-2-yl]pyridine-3-carboxylic acid] are 1900 nM and 84%.
Regarding `O=C(O)c1ccc([C@H]2C[C@@H](NC(=O)C3(c4ccc5c(c4)OC(F)(F)O5)CC3)c3ccccc3O2)nc1` (racemic) [Example 154, rac-6-[(2R,4R)-4-({[1-(2,2-difluoro-1,3-benzodioxol-5-yl)cyclopropyl]carbonyl}amino)-3,4-dihydro-2H-chromen-2-yl]pyridine-3-carboxylic acid], the EC50 is 670 nM and the Emax was found to be 106%.
